pIC50: −log10 of the molar value.

For the first experiment, the target named is T1, Human ATX protein (Homo sapiens, UniProt Q13822).
T1 construct: made in house
Description: ATX biochemical FRET assay with FS-3 substrate. The following applies: FS-3 2 μM, ATX 1.0 μg/mL, binned table, read-out: IC50 (μm). From the text:
ATX (Autotaxin) is a 125 KDa glycoprotein with lysophospholipase D (LPLD) activity that generates the bioactive lipid lysophosphatidic acid (LPA) from lysophosphatidylcholine (LPC). The ATX biochemical assay utilizes a FRET (fluorescence resonance energy transfer) technology platform. The fluorescence signal of FRET substrate FS-3 is quenched due to intra-molecular FRET of a fluorophore to a non-fluorescing quencher (Ferguson, C. G., et al., Org. Lett. 2006 May 11; 8(10): 2023-2026, which is incorporated by reference in its entirety). ATX catalyzes the hydrolysis of the substrate which separates the dabsyl quencher from the fluorescein reporter, which becomes fluorescent. The reaction is monitored by a SpectraMax M5 (Molecular Devices, Sunnyvale, Calif.) with at excitation wavelength 485 nm and emission wavelength 535 nm.
2×ATX assay buffer: 100 mM Tris, 280 mM NaCl, 10 mM KCl, 2 mM CaCl2, 2 mM MgCl2, pH 7.4.
Human ATX protein: expressed and purified in house. Stored at −80° C.
Substrate FS-3 (Echelon, L-2000): 100 μg in 77.74 μL H2O (1 mM stock), stored at −20° C.
Compound dilution—All compounds were provided at 10 mM in 100% DMSO. In the first well, 2 μL of 10 mM compound was added to 78 μL of DMSO (1:40 dilution). In subsequent wells 3-fold dilution (total 10 dilutions) were performed.
1×ATX assay buffer was made up with a final concentration of 1 mg/mL fatty acid free-BSA using 2×ATX assay buffer, 10 mg/ml fatty acid free-BSA and ddH2O.
ATX protein was diluted with 1×ATX assay buffer to a concentration of 1.32 μg/mL (1.32×). 38 μL was added per well to the assay plate. The final concentration of ATX in the reaction as 1.0 μg/mL.
2 μL per well of compounds was transferred to provide the desired concentration. The plate was centrifuged, then incubated at room temperature for 30 minutes on the shaker.
FS-3 was diluted with 1×ATX assay buffer to a concentration of FS-3 of 10 μM (5×). Then, 10 μL was added per well to the assay plate. The final concentration of FS-3 in the reaction was 2 μM. The plate was centrifuged. The plate was kept shaking at room temperature for 2 hours. Because FS-3 substrate is light sensitive, plates were kept covered and protected from light.
Fluorescence was measured using SpectraMax M5 (excitation at 485 nm/emission at 538 nm, top read).
As for `O=C(O)C1CCN(Cc2cccc3ccc(O[C@H]4CC[C@@H](C(F)(F)F)CC4)c(C(F)(F)F)c23)CC1` [Example 25, 1-((8-(trifluoromethyl)-7-((cis-4-(trifluoromethyl)cyclohexyl)oxy)naphthalen-1-yl)methyl)piperidine-4-carboxylic acid], the negative logarithm of the IC50 (pIC50) was 5.30 to 6.30. Regarding `O=C(O)CCCCCNCc1cccc2c(C(F)(F)F)c(O[C@H]3CC[C@@H](C(F)(F)F)CC3)ccc12` [Example 20, 6-(((5-(trifluoromethyl)-6-((cis-4-(trifluoromethyl)cyclohexyl)oxy)naphthalen-1-yl)methyl)amino)hexanoic acid], the negative logarithm of the IC50 (pIC50) is > 6.30. Turning to `O=C(O)CCCCNCc1cccc2c(C(F)(F)F)c(O[C@H]3CC[C@@H](C(F)(F)F)CC3)ccc12` [Example 19, 5-(((5-(trifluoromethyl)-6-((cis-4-(trifluoromethyl)cyclohexyl)oxy)naphthalen-1-yl)methyl)amino)pentanoic acid], the pIC50 was 5.30 to 6.30. With `C[C@H]1CC[C@@H](Oc2ccc3c(CNCC(=O)O)cccc3c2C(F)(F)F)CC1` [Example 6, 2-(((6-((cis-4-methylcyclohexyl)oxy)-5-(trifluoromethyl)naphthalen-1-yl)methyl)amino)acetic acid], the pIC50 is 5.30 to 6.30.

As for `C[C@H]1CC[C@@H](Oc2ccc3cccc(CN4CCC[C@H](CC(=O)O)C4)c3c2C(F)(F)F)CC1` [Example 24, 2-((R)-1-((7-((cis-4-methylcyclohexyl)oxy)-8-(trifluoromethyl)naphthalen-1-yl)methyl)piperidin-3-yl)acetic acid], the negative logarithm of the IC50 (pIC50) was 5.30 to 6.30. The same measure, in the same setting: in the case of `O=C(O)CNCc1cccc2c(C(F)(F)F)c(O[C@H]3CC[C@@H](C(F)(F)F)CC3)ccc12` [Example 16, 2-(((5-(trifluoromethyl)-6-((cis-4-(trifluoromethyl)cyclohexyl)oxy)naphthalen-1-yl)methyl)amino)acetic acid] it was 5.30 to 6.30. Take `O=C(O)C[C@H]1CCCN(Cc2cccc3ccc(O[C@H]4CC[C@@H](C(F)(F)F)CC4)c(C(F)(F)F)c23)C1` [Example 28, 2-((R)-1-((8-(trifluoromethyl)-7-((cis-4-(trifluoromethyl)cyclohexyl)oxy)naphthalen-1-yl)methyl)piperidin-3-yl)acetic acid]: the negative-log IC50 (pIC50) is 5.30 to 6.30. Same read-out and setting: in the case of `C[C@H]1CC[C@@H](Oc2ccc3c(CN4C5CCC4CC(C(=O)O)C5)cccc3c2C(F)(F)F)CC1` (stereo partly drawn) [Example 2, 8-((6-((cis-4-methylcyclohexyl)oxy)-5-(trifluoromethyl)naphthalen-1-yl)methyl)-8-azabicyclo[3.2.1]octane-3-carboxylic acid] it was 5.30 to 6.30. Regarding `O=C(O)CCCNCc1cccc2c(C(F)(F)F)c(O[C@H]3CC[C@@H](C(F)(F)F)CC3)ccc12` [Example 18, 4-(((5-(trifluoromethyl)-6-((cis-4-(trifluoromethyl)cyclohexyl)oxy)naphthalen-1-yl)methyl)amino)butanoic acid], the negative-log IC50 (pIC50) is > 6.30. Same read-out and setting: in the case of `C[C@H]1CC[C@@H](Oc2ccc3cccc(CN4CCC(C(=O)O)CC4)c3c2C(F)(F)F)CC1` [Example 21, 1-((7-((cis-4-methylcyclohexyl)oxy)-8-(trifluoromethyl)naphthalen-1-yl)methyl)piperidine-4-carboxylic acid] it was 5.30 to 6.30. For the compound `C[C@H]1CC[C@@H](Oc2ccc3cccc(CN4C5CCC4CC(C(=O)O)C5)c3c2C(F)(F)F)CC1` (stereo partly drawn) [Example 22, 8-((7-((cis-4-methylcyclohexyl)oxy)-8-(trifluoromethyl)naphthalen-1-yl)methyl)-8-azabicyclo[3.2.1]octane-3-carboxylic acid], the pIC50 is > 6.30. Same read-out and setting: under `C[C@H]1CC[C@@H](Oc2ccc3c(CNCCC(=O)O)cccc3c2C(F)(F)F)CC1` [Example 7, 3-(((6-((cis-4-methylcyclohexyl)oxy)-5-(trifluoromethyl)naphthalen-1-yl)methyl)amino)propanoic acid] stands > 6.30.

In the case of `O=C(O)C1CC2CCC(C1)N2Cc1cccc2ccc(O[C@H]3CC[C@@H](C(F)(F)F)CC3)c(C(F)(F)F)c12` (stereo partly drawn) [Example 26, 8-((8-(trifluoromethyl)-7-((cis-4-(trifluoromethyl)cyclohexyl)oxy)naphthalen-1-yl)methyl)-8-azabicyclo[3.2.1]octane-3-carboxylic acid], the pIC50 is 5.30 to 6.30.

For the compound `C[C@H]1CC[C@@H](Oc2ccc3c(CN4CCC(C(=O)O)CC4)cccc3c2C(F)(F)F)CC1` [Example 1, 1-((6-((cis-4-methylcyclohexyl)oxy)-5-(trifluoromethyl)naphthalen-1-yl)methyl)piperidine-4-carboxylic acid], the pIC50 is 5.30 to 6.30. With `O=C(O)C1CC2CCCC(C1)N2Cc1cccc2c(C(F)(F)F)c(O[C@H]3CC[C@@H](C(F)(F)F)CC3)ccc12` (stereo partly drawn) [Example 13, 9-((5-(trifluoromethyl)-6-((cis-4-(trifluoromethyl)cyclohexyl)oxy)naphthalen-1-yl)methyl)-9-azabicyclo[3.3.1]nonane-3-carboxylic acid], the negative logarithm of the IC50 (pIC50) was 5.30 to 6.30. For the compound `C[C@H]1CC[C@@H](Oc2ccc3c(CNC4(C(=O)O)CCCCC4)cccc3c2C(F)(F)F)CC1` [Example 5, 1-(((6-((cis-4-methylcyclohexyl)oxy)-5-(trifluoromethyl)naphthalen-1-yl)methyl)amino)cyclohexanecarboxylic acid], the pIC50 was < 5.30. As to `O=C(O)CCNCc1cccc2c(C(F)(F)F)c(O[C@H]3CC[C@@H](C(F)(F)F)CC3)ccc12` [Example 17, 3-(((5-(trifluoromethyl)-6-((cis-4-(trifluoromethyl)cyclohexyl)oxy)naphthalen-1-yl)methyl)amino)propanoic acid], the pIC50 was 5.30 to 6.30. On to `O=C(O)C[C@H]1CCCN(Cc2cccc3c(C(F)(F)F)c(O[C@H]4CC[C@@H](C(F)(F)F)CC4)ccc23)C1` [Example 14, 2-((R)-1-((5-(trifluoromethyl)-6-((cis-4-(trifluoromethyl)cyclohexyl)oxy)naphthalen-1-yl)methyl)piperidin-3-yl)acetic acid], for which the pIC50 was > 6.30. Consider `C[C@H]1CC[C@@H](Oc2ccc3c(CNCCCC(=O)O)cccc3c2C(F)(F)F)CC1` [Example 8, 4-(((6-((cis-4-methylcyclohexyl)oxy)-5-(trifluoromethyl)naphthalen-1-yl)methyl)amino)butanoic acid], for which the pIC50 was > 6.30. As to `C[C@H]1CC[C@@H](Oc2ccc3c(CNCCCCCC(=O)O)cccc3c2C(F)(F)F)CC1` [Example 10, 6-(((6-((cis-4-methylcyclohexyl)oxy)-5-(trifluoromethyl)naphthalen-1-yl)methyl)amino)hexanoic acid], the pIC50 was > 6.30. For `O=C(O)C1CC2CCCC(C1)N2Cc1cccc2ccc(O[C@H]3CC[C@@H](C(F)(F)F)CC3)c(C(F)(F)F)c12` (stereo partly drawn) [Example 27, 9-((8-(trifluoromethyl)-7-((cis-4-(trifluoromethyl)cyclohexyl)oxy)naphthalen-1-yl)methyl)-9-azabicyclo[3.3.1]nonane-3-carboxylic acid], the pIC50 is 5.30 to 6.30.

Regarding `C[C@H]1CC[C@@H](Oc2ccc3c(CN4CCC[C@H](CC(=O)O)C4)cccc3c2C(F)(F)F)CC1` [Example 4, 2-((R)-1-((6-((cis-4-methylcyclohexyl)oxy)-5-(trifluoromethyl)naphthalen-1-yl)methyl)piperidin-3-yl)acetic acid], the negative-log IC50 (pIC50) is > 6.30. Turning to `C[C@H]1CC[C@@H](Oc2ccc3cccc(CN4C5CCCC4CC(C(=O)O)C5)c3c2C(F)(F)F)CC1` (stereo partly drawn) [Example 23, 9-((7-((cis-4-methylcyclohexyl)oxy)-8-(trifluoromethyl)naphthalen-1-yl)methyl)-9-azabicyclo[3.3.1]nonane-3-carboxylic acid], the negative logarithm of the IC50 (pIC50) is 5.30 to 6.30. With `C[C@H]1CC[C@@H](Oc2ccc3c(CN4C5CCCC4CC(C(=O)O)C5)cccc3c2C(F)(F)F)CC1` (stereo partly drawn) [Example 3, 9-((6-((cis-4-methylcyclohexyl)oxy)-5-(trifluoromethyl)naphthalen-1-yl)methyl)-9-azabicyclo[3.3.1]nonane-3-carboxylic acid], the pIC50 was 5.30 to 6.30.

In the case of `O=C(O)C1CCN(Cc2cccc3c(C(F)(F)F)c(O[C@H]4CC[C@@H](C(F)(F)F)CC4)ccc23)CC1` [Example 11, 1-((5-(trifluoromethyl)-6-((cis-4-(trifluoromethyl)cyclohexyl)oxy)naphthalen-1-yl)methyl)piperidine-4-carboxylic acid], the negative-log IC50 (pIC50) is 5.30 to 6.30.

The experiment is the same for the next values; noted with them: FS-3 2 μM, ATX 1.0 μg/mL, read-out: ATX IC50.
Turning to `O=C(O)CCCCCNCc1cccc2c(C(F)(F)F)c(O[C@H]3CC[C@@H](C(F)(F)F)CC3)ccc12` [Example 20, 6-(((5-(trifluoromethyl)-6-((cis-4-(trifluoromethyl)cyclohexyl)oxy)naphthalen-1-yl)methyl)amino)hexanoic acid], the pIC50 was ≥ 6.60. As for `C[C@H]1CC[C@@H](Oc2ccc3cccc(CN4C5CCC4CC(C(=O)O)C5)c3c2C(F)(F)F)CC1` (stereo partly drawn) [Example 22, 8-((7-((cis-4-methylcyclohexyl)oxy)-8-(trifluoromethyl)naphthalen-1-yl)methyl)-8-azabicyclo[3.2.1]octane-3-carboxylic acid], the pIC50 is ≥ 6.60.

Take `O=C(O)C[C@H]1CCCN(Cc2cccc3c(C(F)(F)F)c(O[C@H]4CC[C@@H](C(F)(F)F)CC4)ccc23)C1` [Example 14, 2-((R)-1-((5-(trifluoromethyl)-6-((cis-4-(trifluoromethyl)cyclohexyl)oxy)naphthalen-1-yl)methyl)piperidin-3-yl)acetic acid]: the negative-log IC50 (pIC50) is ≥ 6.60. `C[C@H]1CC[C@@H](Oc2ccc3c(CNCCCCCC(=O)O)cccc3c2C(F)(F)F)CC1` [Example 10, 6-(((6-((cis-4-methylcyclohexyl)oxy)-5-(trifluoromethyl)naphthalen-1-yl)methyl)amino)hexanoic acid]: the negative logarithm of the IC50 (pIC50) was ≥ 6.60. Take `C[C@H]1CC[C@@H](Oc2ccc3c(CN4CCC[C@H](CC(=O)O)C4)cccc3c2C(F)(F)F)CC1` [Example 4, 2-((R)-1-((6-((cis-4-methylcyclohexyl)oxy)-5-(trifluoromethyl)naphthalen-1-yl)methyl)piperidin-3-yl)acetic acid]: the negative logarithm of the IC50 (pIC50) is ≥ 6.60.
